In US3987157A, “Technetium 99-M labeled radio-diagnostic agents employing stannous tartrate and method of preparation” (Union Carbide Corporation, priority 1974, dated 1976):

Experiments:
[1] = Stability of various stannous compounds to air oxidation, one hour (Table XII); assay type: physicochemical; conditions: for Stannous Concentration Before Aeration: 98 ml saline containing 2 ml 1N HCl; for Stannous Concentration After Aeration / % Not Oxidized tin: air bubbled for one hour; for % Not Oxidized tin: 60 min
Procedure: Six salts of stannous compounds were each dissolved in 98 ml of saline containing 2 ml 1N HCl. The solutions were analyzed in order to measure the stannous ion concentration and then were subjected to oxidation conditions by bubbling air through the solutions for one hour. The solutions were analyzed again. […]

[2] = Stability of stannous compounds to air oxidation, 2.5 hours (Table XI); assay type: physicochemical; conditions: 40 ml saline and 1 ml 1N HCl
Procedure: Four salts of stannous compounds were each dissolved in a solution of 40 ml of saline and 1 ml of 1N HCl which was purged with nitrogen. The stannous concentration was measured and then the solution was subjected to oxidation conditions by bubbling air through the solution for 2.5 hours. The stannous concentration was again measured.

Row | Structure (SMILES) | Stannous Concentration Before Aeration [1] | Stannous Concentration After Aeration [1] | % Not Oxidized tin [1] | Stannous Concentration Before Aeration [2] | Stability to air oxidation (in words) ([1]; one hour air)
1 | [Cl][Sn][Cl] [Stannous Chloride, stannous chloride, reference compound] | 0.138 mg/mL | 0.085 mg/mL | 61.6% | 9.3 mg/mL | –
2 | O=C([O-])[C@H](O)[C@@H](O)C(=O)[O-].[Sn+2] [Stannous Tartrate, stannous tartrate] | 0.247 mg/mL | 0.213 mg/mL | 86.2% | 18.0 mg/mL | more stable than stannous chloride with tartrate or citrate ion present
